How the values were obtained:
Assay in all cases: relative viability (nuclei count vs DMSO), 5 days (fraction); higher = more cells survive
KIN001-266 + Pictilisib = compound: CCN1CCC(CC1)N2C=C(N=N2)CNC3=CC4=C(C(=CN=C4C(=C3)Cl)C#N)NC5=CC(=C(C=C5)F)Cl [KIN001-266] + CS(=O)(=O)N1CCN(Cc2cc3nc(-c4cccc5[nH]ncc45)nc(N4CCOCC4)c3s2)CC1 [Pictilisib] (partner 1 µM)
Outline: (§1)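 Lung cancer cell lines were pin-tool dosed in 1536-well plates on the day after seeding, with either a lone drug or a fixed anchor-drug dose plus five library-drug doses (not always all listed) in √10 steps. Nuclei were counted on 4× images after 5 days. Relative viability is the ratio of treated-well to vehicle-well nuclei counts, with each value a median of duplicate plates.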

KIN001-266 + Crizotinib = compound: CCN1CCC(CC1)N2C=C(N=N2)CNC3=CC4=C(C(=CN=C4C(=C3)Cl)C#N)NC5=CC(=C(C=C5)F)Cl [KIN001-266] + C[C@@H](Oc1cc(-c2cnn(C3CCNCC3)c2)cnc1N)c1c(Cl)ccc(F)c1Cl [Crizotinib] (partner 1 µM)
Outline: as §1

KIN001-266 + Dasatinib = compound: CCN1CCC(CC1)N2C=C(N=N2)CNC3=CC4=C(C(=CN=C4C(=C3)Cl)C#N)NC5=CC(=C(C=C5)F)Cl [KIN001-266] + Cc1nc(Nc2ncc(C(=O)Nc3c(C)cccc3Cl)s2)cc(N2CCN(CCO)CC2)n1 [Dasatinib] (partner 0.075 µM)
Outline: as §1

KIN001-266 + Vorinostat = compound: CCN1CCC(CC1)N2C=C(N=N2)CNC3=CC4=C(C(=CN=C4C(=C3)Cl)C#N)NC5=CC(=C(C=C5)F)Cl [KIN001-266] + O=C(CCCCCCC(=O)Nc1ccccc1)NO [Vorinostat] (partner 1 µM)
Outline: as §1

Cell Line | relative viability (KIN001-266 + Pictilisib; first compound 0.08 µM) | relative viability (KIN001-266 + Pictilisib; first compound 0.253 µM) | relative viability (KIN001-266 + Pictilisib; first compound 0.8 µM) | relative viability (KIN001-266 + Pictilisib; first compound 2.53 µM) | relative viability (KIN001-266 + Pictilisib; first compound 8 µM) | relative viability (KIN001-266 + Crizotinib; first compound 0.08 µM) | relative viability (KIN001-266 + Crizotinib; first compound 0.253 µM) | relative viability (KIN001-266 + Crizotinib; first compound 0.8 µM) | relative viability (KIN001-266 + Crizotinib; first compound 2.53 µM) | relative viability (KIN001-266 + Crizotinib; first compound 8 µM) | relative viability (KIN001-266 + Dasatinib; first compound 0.08 µM) | relative viability (KIN001-266 + Dasatinib; first compound 0.253 µM) | relative viability (KIN001-266 + Dasatinib; first compound 0.8 µM) | relative viability (KIN001-266 + Dasatinib; first compound 2.53 µM) | relative viability (KIN001-266 + Dasatinib; first compound 8 µM) | relative viability (KIN001-266 + Vorinostat; first compound 0.08 µM) | relative viability (KIN001-266 + Vorinostat; first compound 0.253 µM) | relative viability (KIN001-266 + Vorinostat; first compound 0.8 µM) | relative viability (KIN001-266 + Vorinostat; first compound 2.53 µM) | relative viability (KIN001-266 + Vorinostat; first compound 8 µM)
LOU-NH91 | 0.542 | 0.533 | 0.443 | 0.469 | 0.505 | 0.75 | 0.694 | 0.576 | 0.683 | 0.647 | 0.553 | 0.531 | 0.39 | 0.516 | 0.435 | 0.96 | 0.924 | 0.71 | 0.746 | 0.797
LU99A | 0.325 | 0.338 | 0.319 | 0.3 | 0.284 | 0.662 | 0.519 | 0.515 | 0.55 | 0.522 | 0.726 | 0.514 | 0.505 | 0.428 | 0.425 | 0.484 | 0.591 | 0.467 | 0.459 | 0.539
NCI-H522 | – | – | – | – | – | – | – | – | – | – | 0.919 | 0.918 | 0.853 | 0.862 | 0.934 | 0.936 | 0.887 | 0.876 | 0.979 | 0.943
NCI-H1299 | 0.98 | 0.754 | 0.893 | 0.75 | 0.424 | 0.946 | 0.921 | 0.941 | 0.87 | 0.817 | – | – | – | – | – | – | – | – | – | –
NCI-H1395 | 0.693 | 0.843 | 0.614 | 0.522 | 0.575 | – | – | – | – | – | 0.413 | 0.388 | 0.43 | 0.418 | 0.429 | 0.679 | 0.768 | 0.828 | 0.654 | 0.709
NCI-H1563 | 0.662 | 0.636 | 0.636 | 0.656 | 0.677 | 0.877 | 0.799 | 0.95 | 0.852 | 0.879 | 0.468 | 0.524 | 0.447 | 0.458 | 0.553 | – | – | – | – | –
NCI-H1648 | – | – | – | – | – | – | – | – | – | – | – | – | – | – | – | 0.438 | 0.502 | 0.515 | 0.453 | 0.422
NCI-H1703 | 0.287 | 0.23 | 0.234 | 0.211 | 0.223 | 0.965 | 0.675 | 0.63 | 0.457 | 0.371 | – | – | – | – | – | – | – | – | – | –
NCI-H1792 | 0.312 | 0.282 | 0.325 | 0.305 | 0.265 | 0.975 | 0.898 | 0.932 | 0.971 | 0.968 | 0.771 | 0.787 | 0.753 | 0.762 | 0.906 | – | – | – | – | –
NCI-H1793 | 0.287 | 0.332 | 0.305 | 0.253 | 0.322 | – | – | – | – | – | 0.332 | 0.389 | 0.391 | 0.329 | 0.369 | 0.887 | 0.738 | – | 0.723 | 0.555
NCI-H2342 | – | – | – | – | – | – | – | – | – | – | 0.298 | 0.303 | 0.258 | 0.264 | 0.31 | 0.693 | 0.867 | 0.876 | 0.776 | 1.16
SW 900 | – | – | – | – | – | – | – | – | – | – | 0.753 | 0.491 | 0.544 | 0.764 | 0.507 | 0.557 | 0.549 | 0.466 | 0.426 | 0.319

— the supplement of paper PMC10307832
